The results in this text go back to patent US12581252B2, “Substituted pyrrolo[3,4-b]pyridines as PI3K-α inhibitors” (Relay Therapeutics, Inc., priority 2020, dated 2026).

The target of this experiment is H1047R PIK3CA enzyme (Homo sapiens, UniProt P42336, H1047R). Kind of experiment: ADP-Glo Biochemical PIK3CA Kinase Assay.
Sequence of H1047R PIK3CA enzyme (P42336 whole entry H1047R): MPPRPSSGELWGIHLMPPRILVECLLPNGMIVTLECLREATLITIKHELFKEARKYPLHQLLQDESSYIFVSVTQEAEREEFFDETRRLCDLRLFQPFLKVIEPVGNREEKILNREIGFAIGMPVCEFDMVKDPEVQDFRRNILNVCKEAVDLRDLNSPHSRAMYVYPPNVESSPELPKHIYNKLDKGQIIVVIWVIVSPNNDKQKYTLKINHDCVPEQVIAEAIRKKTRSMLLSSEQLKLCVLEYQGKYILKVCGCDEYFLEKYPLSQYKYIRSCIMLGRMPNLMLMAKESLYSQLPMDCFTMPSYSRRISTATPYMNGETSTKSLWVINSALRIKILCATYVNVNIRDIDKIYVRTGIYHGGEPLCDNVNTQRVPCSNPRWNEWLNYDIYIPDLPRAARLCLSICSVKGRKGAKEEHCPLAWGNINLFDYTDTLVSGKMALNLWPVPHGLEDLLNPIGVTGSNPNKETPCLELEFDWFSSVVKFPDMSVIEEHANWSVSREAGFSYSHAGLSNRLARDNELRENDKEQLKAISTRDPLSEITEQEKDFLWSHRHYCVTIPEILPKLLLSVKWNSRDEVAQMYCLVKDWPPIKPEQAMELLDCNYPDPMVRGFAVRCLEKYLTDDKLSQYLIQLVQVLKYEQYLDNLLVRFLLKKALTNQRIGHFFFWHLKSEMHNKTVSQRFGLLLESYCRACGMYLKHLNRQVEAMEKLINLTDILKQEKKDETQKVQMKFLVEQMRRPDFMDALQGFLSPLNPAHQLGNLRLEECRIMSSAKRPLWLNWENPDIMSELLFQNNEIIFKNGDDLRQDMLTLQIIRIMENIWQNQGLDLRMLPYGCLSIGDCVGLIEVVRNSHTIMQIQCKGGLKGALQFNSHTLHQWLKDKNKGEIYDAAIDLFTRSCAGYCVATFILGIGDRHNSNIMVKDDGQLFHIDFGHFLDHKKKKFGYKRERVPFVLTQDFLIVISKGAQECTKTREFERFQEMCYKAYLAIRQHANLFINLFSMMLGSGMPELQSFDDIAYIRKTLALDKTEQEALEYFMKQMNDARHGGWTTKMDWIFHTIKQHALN
Sequence of H1047R PIK3CA enzyme (P27986 whole entry partner): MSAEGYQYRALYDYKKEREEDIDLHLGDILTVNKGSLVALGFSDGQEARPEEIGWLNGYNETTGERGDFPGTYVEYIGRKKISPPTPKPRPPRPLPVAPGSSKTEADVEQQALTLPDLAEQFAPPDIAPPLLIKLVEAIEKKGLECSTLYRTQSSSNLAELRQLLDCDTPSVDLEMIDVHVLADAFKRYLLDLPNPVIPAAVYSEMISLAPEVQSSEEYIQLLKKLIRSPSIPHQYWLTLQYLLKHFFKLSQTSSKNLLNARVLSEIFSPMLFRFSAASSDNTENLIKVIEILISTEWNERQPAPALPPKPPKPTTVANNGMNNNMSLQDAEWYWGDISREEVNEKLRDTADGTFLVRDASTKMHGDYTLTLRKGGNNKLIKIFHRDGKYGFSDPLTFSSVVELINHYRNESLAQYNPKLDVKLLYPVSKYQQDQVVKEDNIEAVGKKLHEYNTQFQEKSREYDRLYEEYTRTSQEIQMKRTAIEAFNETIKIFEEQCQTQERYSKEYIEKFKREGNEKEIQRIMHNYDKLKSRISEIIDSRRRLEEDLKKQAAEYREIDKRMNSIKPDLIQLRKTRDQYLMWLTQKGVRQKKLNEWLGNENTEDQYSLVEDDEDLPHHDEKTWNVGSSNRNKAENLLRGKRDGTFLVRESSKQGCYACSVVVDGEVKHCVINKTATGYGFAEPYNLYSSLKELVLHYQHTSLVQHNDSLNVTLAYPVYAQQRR
By IC50 is commonly meant the point on the concentration scale where inhibition reaches its midpoint. Lower therefore signals greater potency. Regarding `O=C1NC(c2cc(F)ccc2Cl)c2c(NC(=O)C3(c4cccc(F)c4)CC3)cc(Br)cc21` (centres unmarked) [Compound I-557], the IC50 was 1 to 10 µM.
On to `Cc1ccccc1[C@@H]1NC(=O)c2cccc(NC(=O)c3csc4c(F)cccc34)c21` [Compound I-37], for which the IC50 fell in the range of 10 to 100 µM.
Compound `O=C1NC(c2cc(F)ccc2Cl)c2c(NC(=O)N3CCOC(C(F)(F)F)C3)cc(Br)cc21` (centres unmarked) [Compound I-1810] registered an IC50 of 1 to 10 µM.
Under `CNC(=O)c1cc(NC(=O)c2csc3ccccc23)c2c(c1)C(=O)N[C@@H]2c1ccccc1C` [Compound I-75, (R)-7-(Benzo[b]thiophene-3-carboxamido)-N-methyl-3-oxo-1-(o-tolyl)isoindoline-5-carboxamide] stands 1 to 10 µM; under `Cc1ccccc1C1NC(=O)c2cccc(NC(=O)N3CCc4c(F)cc(F)cc43)c21` (centres unmarked) [Compound I-104], 0.1 to 0.5 µM; under `O=C1NC(c2cc(F)ccc2Cl)c2c1cc(-c1ccc3ncnn3c1)cc2N1CCNCC1` (centres unmarked) [Compound I-1908], 10 to 100 µM.
`O=C(Nc1cc(N2CCCC(F)(F)C2)nc2c1C(c1cc(F)ccc1Cl)NC2=O)c1cc(F)cc(C(F)(F)F)c1` (centres unmarked) [Compound I-538] showed an IC50 of at most 0.1 µM.
`COCc1cc(NC(=O)N2C[C@](O)(C(F)(F)F)c3cc(F)ccc32)c2c(c1)C(=O)N[C@@H]2c1cc(F)ccc1Cl` (single isomer, unassigned) [Compound I-2542] showed an IC50 of 1 to 10 µM.
Under `O=C(Nc1cc(Br)cc2c1[C@@H](c1cccc(F)c1F)NC2=O)c1cc(F)cc(C(F)(F)F)c1` [Compound I-683] stands 1 to 10 µM; under `C[C@H](O)c1cc(-c2ccc3ncnn3c2)cc2c1[C@@H](c1cc(F)ccc1Cl)NC2=O` (single isomer, unassigned) [Compound I-2228], 10 to 100 µM; under `O=C(Nc1cc(-c2ccc3ncnn3c2)cc2c1[C@@H](c1cc(F)ccc1Cl)NC2=O)c1cc(F)cc(C(F)(F)F)c1` (single isomer, unassigned) [Compound I-943], 0.5 to 1 µM.
Turning to `O=C(Nc1cc(CN2CC(F)(F)C2)cc2c1C(c1cc(F)ccc1Cl)NC2=O)c1cc(F)cc(C(F)(F)F)c1` (centres unmarked) [Compound I-348, N-(3-(2-Chloro-5-fluorophenyl)-6-((3,3-difluoroazetidin-1-yl)methyl)-1-oxoisoindolin-4-yl)-3-fluoro-5-(trifluoromethyl)benzamide], the IC50 was at most 0.1 µM.
With `Cn1ccc(Nc2cc(NC(=O)c3cc(F)cc(C(F)(F)F)c3)c3c(c2)C(=O)NC3c2cc(F)ccc2Cl)n1` (centres unmarked) [Compound I-867] the figure was at most 0.1 µM.
With `O=C(Nc1cc(Br)cc2c1C(c1cc(F)ccc1Cl)NC2=O)NC1(C(F)(F)F)CC1` (centres unmarked) [Compound I-1294] the figure was 1 to 10 µM; with `O=C1N[C@@H](c2cc(F)ccc2Cl)c2c(NC(=O)N3C[C@@H](O)c4cc(F)ccc43)cc(-n3ccnn3)cc21` (single isomer, unassigned) [Compound I-2370], 0.5 to 1 µM; with `O=C(Nc1cc(-c2ccc3ncnn3c2)cc2c1[C@@H](c1cc(F)ccc1C(F)F)NC2=O)c1cc(F)cc(C(F)(F)F)c1` (stereo in doubt) [Compound I-1055], 1 to 10 µM.
`O=C(Nc1cc(Br)cc2c1C(c1cc(F)ccc1Cl)NC2=O)c1cc(Cl)c(Cl)s1` (centres unmarked) [Compound I-1384]: the IC50 lay in the range of 0.5 to 1 µM.
Under `Cn1cc(-c2cc(NC(=O)c3cc(F)cc(C(F)(F)F)c3)c3c(c2)C(=O)N[C@H]3c2cc(F)ccc2Cl)ccc1=O` (single isomer, unassigned) [Compound I-702] stands at most 0.1 µM.
In turn, `O=C1NC(c2cc(F)ccc2Cl)c2c(NC(=O)N3CCOCC3)cc(Br)cc21` (centres unmarked) [Compound I-576] yielded an IC50 of 10 to 100 µM.
For `Cc1ccccc1C1NC(=O)c2cc(C(O)CO)cc(NC(=O)c3csc4ccccc34)c21` (mixture of isomers) [Compound I-139, N-[6-(1,2-Dihydroxyethyl)-3-(2-methylphenyl)-1-oxo-2,3-dihydro-1H-isoindol-4-yl]-1-benzothiophene-3-carboxamide], the IC50 is at most 0.1 µM.
`O=C(Nc1cc(-c2ccn3ccnc3c2)cc2c1[C@H](c1cc(F)ccc1Cl)NC2=O)c1cc(F)cc(C(F)(F)F)c1` [Compound I-1450] gave an IC50 of at most 0.1 µM.
Regarding `O=C1N[C@@H](c2cc(F)ccc2Cl)c2c(NC(=O)[C@@H]3C[C@@H](O)C[C@H](C(F)(F)F)C3)cccc21` (single isomer, unassigned) [Compound I-2175], the IC50 lay within 10 to 100 µM.
`O=C1NC(c2cc(F)ccc2Cl)c2c1cc(-c1ccc3ncnn3c1)cc2N1CCn2cnnc2C1` (centres unmarked) [Compound I-2019] returned an IC50 of 10 to 100 µM.
On to `O=C(Nc1cc(Br)cc2c1C(c1cc(F)ccc1Cl)NC2=O)NC1(CC(F)(F)F)CC1` (centres unmarked) [Compound I-1755], for which the IC50 fell in the range of 10 to 100 µM.
For `O=C(Nc1cc(-c2cnn(-c3cnccn3)c2)cc2c1C(c1cc(F)ccc1Cl)NC2=O)c1cc(F)cc(C(F)(F)F)c1` (centres unmarked) [Compound I-1608], the IC50 was at most 0.1 µM.
Under `CC(C)(CN)n1cc(-c2cc(NC(=O)N3C[C@@](O)(C(F)(F)F)c4cc(F)ccc43)c3c(c2)C(=O)N[C@H]3c2cc(F)ccc2Cl)cn1` (single isomer, unassigned) [Compound I-2651] stands 1 to 10 µM; under `CC(C)[C@H](N)C(=O)N1C(=O)c2cc(-c3ccc4ncnn4c3)cc(NC(=O)c3cc(F)cc(C(F)(F)F)c3)c2C1c1cc(F)ccc1Cl` (some centres unmarked) [Compound I-1343], at most 0.1 µM.
Under `COc1cccc2scc(C(=O)Nc3cccc4c3C(c3ccccc3C)NC4=O)c12` (centres unmarked) [Compound I-78] stands 10 to 100 µM.
Under `O=C1N[C@@H](c2cc(F)ccc2Cl)c2c(NC(=O)N3C[C@@H](O)c4c3ccc(F)c4F)cccc21` (single isomer, unassigned) [Compound I-2313] stands 1 to 10 µM; under `N#Cc1cc(F)cc(C(=O)Nc2cc(Br)cc3c2C(c2cc(F)ccc2Cl)NC3=O)c1` (centres unmarked) [Compound I-910], 1 to 10 µM.
`O=C1NC(c2cc(F)ccc2Cl)c2c(NC(=O)C34CCC(C(O)C(F)(F)F)(CC3)C4)cccc21` (centres unmarked) [Compound I-2285]: the IC50 fell in the range of 10 to 100 µM.
Under `O=C(Nc1cc(NC(=O)C2CC2)cc2c1C(c1cc(F)ccc1Cl)NC2=O)c1cc(F)cc(C(F)(F)F)c1` (centres unmarked) [Compound I-625] stands at most 0.1 µM; under `Cn1cnc2ccc(-c3cc(NC(=O)c4cc(F)cc(C(F)(F)F)c4)c4c(c3)C(=O)NC4c3cc(F)ccc3Cl)cc21` (centres unmarked) [Compound I-1027], at most 0.1 µM.
In the case of `O=C1NC(c2cc(F)ccc2Cl)c2c(NC(=O)N3CCc4ccc(OC(F)(F)F)cc43)cccc21` (centres unmarked) [Compound I-2480], the IC50 fell in the range of 1 to 10 µM.
Under `O=C1NC(c2cc(F)ccc2Cl)c2c(NC(=O)N3CCCCCC3)cc(Br)cc21` (centres unmarked) [Compound I-577] stands 10 to 100 µM; under `O=C1N[C@H](c2cc(F)ccc2Cl)c2c(NC(=O)N3C[C@@H](O)c4cc(F)ccc43)cc(-n3ccccc3=O)cc21` (single isomer, unassigned) [Compound I-2352], 1 to 10 µM; under `O=C1NC(c2cc(F)ccc2Cl)c2c(Nc3n[nH]c4c(C(F)(F)F)cc(F)cc34)cc(-c3ccc4ncnn4c3)cc21` (centres unmarked) [Compound I-2049], at most 0.1 µM.
`O=C1NC(c2cc(F)ccc2Cl)c2c(NC(=O)N3CCc4cnccc43)cccc21` (centres unmarked) [Compound I-2191] came in with an IC50 of 1 to 10 µM.
With `Cn1cc(-c2cc(NC(=O)c3nsc4ccccc34)c3c(n2)C(=O)N[C@H]3c2ccccc2Cl)cn1` [Compound I-114] the figure was 1 to 10 µM; with `O=C1NC(c2cc(F)ccc2Cl)c2c(NC(=O)c3c[nH]c4cccc(Cl)c34)cc(Br)cc21` (centres unmarked) [Compound I-956], 1 to 10 µM; with `Cn1cc(-c2cc(NC(=O)c3cc(F)cc(C(F)(F)F)c3)c3c(n2)C(=O)N[C@@H]3c2cc(F)ccc2Cl)cn1` [Compound I-186], 0.5 to 1 µM.
Take `O=C(Nc1cc(C2(O)COC2)cc2c1C(c1cc(F)ccc1Cl)NC2=O)c1cc(F)cc(C(F)(F)F)c1` (centres unmarked) [Compound I-1281]: the IC50 was at most 0.1 µM.
With `Cc1ccccc1C1NC(=O)c2cccc(NC(=O)c3nc(C)c4c(F)cc(F)cn34)c21` (centres unmarked) [Compound I-342] the figure was 10 to 100 µM.
Under `O=C1NC(c2cc(F)ccc2Cl)c2c(NC(=O)N3CCC3c3ccccc3)cccc21` (centres unmarked) [Compound I-2321] stands 10 to 100 µM; under `CCC1C(C)CCN1C(=O)Nc1cccc2c1C(c1cc(F)ccc1Cl)NC2=O` (mixture of isomers) [Compound I-2394], 1 to 10 µM; under `O=C1NC(c2cc(F)ccc2Cl)c2c(NCC(=O)N3CCCCC3)cc(-c3ccc4ncnn4c3)cc21` (centres unmarked) [Compound I-2038], 10 to 100 µM.
In turn, `O=C(Nc1ccnc2c1C(c1ccccc1Cl)NC2=O)c1cc(F)cc(OC(F)(F)F)c1` (centres unmarked) [Compound I-234] yielded an IC50 of 1 to 10 µM.
With `O=C(Cn1ncc2ccccc21)Nc1cc(Br)cc2c1C(c1cc(F)ccc1Cl)NC2=O` (centres unmarked) [Compound I-633] the figure was 10 to 100 µM.
In the case of `O=C(Nc1cc(OC[C@@H]2CCO2)cc2c1[C@@H](c1cc(F)ccc1Cl)NC2=O)c1cc(F)cc(C(F)(F)F)c1` (single isomer, unassigned) [Compound I-1519], the 50% inhibitory concentration (IC50) lay within 10 to 100 µM.
Under `N#Cc1cnn2ccc(-c3cc(NC(=O)c4cc(F)cc(C(F)(F)F)c4)c4c(c3)C(=O)N[C@@H]4c3cc(F)ccc3Cl)cc12` [Compound I-1798] stands 1 to 10 µM.
Under `COc1cncc(-c2cc(NC(=O)c3cc(F)cc(C(F)(F)F)c3)c3c(c2)C(=O)NC3c2cc(F)ccc2Cl)c1` (centres unmarked) [Compound I-854] stands at most 0.1 µM; under `Cc1nn(C(=O)Nc2cccc3c2C(c2cc(F)ccc2Cl)NC3=O)c2ccccc12` (centres unmarked) [Compound I-2380], 0.5 to 1 µM.
With `CC(C)Cc1cc(NC(=O)c2cc(F)cc(C(F)(F)F)c2)c2c(c1)C(=O)NC2c1cc(F)ccc1Cl` (centres unmarked) [Compound I-293] the figure was at most 0.1 µM.
In turn, `O=C(Nc1cc(-c2cnn(S(=O)(=O)C(F)F)c2)cc2c1C(c1cc(F)ccc1Cl)NC2=O)c1cc(F)cc(C(F)(F)F)c1` (centres unmarked) [Compound I-2055] gave an IC50 of at most 0.1 µM.
`C[C@@]1(O)CN(C(=O)Nc2cc(Br)cc3c2C(c2cc(F)ccc2Cl)NC3=O)c2ccccc21` (single isomer, unassigned) [Compound I-1511]: the IC50 is at most 0.1 µM.
Under `O=C(Nc1ccnc2c1C(c1ccccc1Cl)NC2=O)c1ccnc2c1CCC2` (centres unmarked) [Compound I-240] stands 10 to 100 µM.
